Laboratory results reported in patent US20180243190A1, “ACTIVATORS OF NRF2-DEPENDENT PHOTOPROTECTION AND RELATED USES THEREOF” (THE ARIZONA BOARD OF REGENTS ON BEHALF OF THE UNIVERSITY OF …, priority 2015, published 2018).

Columns and labels:
[1] = tested on: primary human epidermal keratinocytes (HEKs); assay: Oxidative Stress RT2 Profiler PCR Expression Array analysis; assay type: cell-based; conditions: bixin 20 μM, 24 h
Method: Total cellular RNA was prepared according to a standard procedure using the RNeasy kit (Qiagen, Valencia, Calif., USA). Reverse transcription was performed using the RT^2 First Strand kit (SuperArray, Frederick, Md., USA) and 1 μg total RNA. The Human Oxidative Stress RT^2Profiler™ PCR Expression Array (SuperArray) profiling the expression of 84 stress-related genes was employed as described before. Gene-specific product was normalized to ACTB and quantified using the comparative (ΔΔCt) Ct method following the ABI Prism 7000 sequence detection system user guide. Expression values were averaged across three independent array experiments followed by statistical analysis.

[2] = tested on: NRF2 transcriptional activity; assay: Dual luciferase NQO1-ARE reporter assay in HaCaT keratinocytes; assay type: cell-based, human; conditions: 10-40 μM, 16 h
Method: (§1) Transfection of cDNA was performed using Lipofectamine 3000 (Invitrogen) according to the manufacturer's instructions. Activation of NRF2 transcriptional activity was performed as previously published. Briefly, HaCaT cells were cotransfected with expression vectors for either KEAP1 wild type (KEAP1-WT) or KEAP1 with a mutation that generates a protein that contains a serine residue instead of a cysteine (KEAP1-C151S), along with NQO1-ARE firefly luciferase and Renilla luciferase reporters. At 24 h post-transfection, cells were left untreated or treated with SF (5 μM), As (5 μM), or bixin (40 μM) for 16 h. The cells were then lysed for analysis of the reporter gene activity using the Promega dual-luciferase reporter gene assay system.

[3] = tested on: NRF2; assay: Immunoblot analysis (NRF2/KEAP1/targets) in HaCaT keratinocytes; assay type: cell-based, human
Method: Experiments were performed according to previously published procedures. Cells were harvested in sample buffer (50 mM Tris-HCl [pH 6.8], 2% sodium dodecyl sulfate (SDS), 10% glycerol, 100 mM dithiothreitol (DTT), and 0.1% bromophenol blue), boiled and sonicated. Total cell lysates were resolved by SDS-PAGE and subjected to immunoblot analyses with the indicated antibodies. For the ubiquitination assay, cells were cotransfected with expression vectors for NRF2 and HA-tagged ubiquitin (HA-Ub). Cells were left untreated or treated with either 5 μM sulforaphane (SF) or 40 μM bixin along with 10 μM MG132 for 4 h. Cells were harvested in buffer containing 2% SDS, 150 mM NaCl, 10 mM Tris-HCl (pH 8.0), and 1 mM DTT and boiled immediately. For immunoprecipitation, 1 μg of NRF2 antibody was incubated with the cell lysates at 4° C. overnight with protein A agarose beads (Invitrogen). Immunoprecipitated complexes were washed four times with RIPA buffer and eluted in sample buffer by boiling for 5 min. Samples were resolved by SDS-PAGE and immunoblotted with HA antibody. To measure the half-life of NRF2, HaCaT cells were either left untreated or treated with 5 μM bixin for 4 h, then 50 μM cycloheximide was added to block protein synthesis. Total cell lysates were collected at different time points and subjected to immunoblot analysis with NRF2 antibody. The relative intensity of the bands was quantified using the ChemiDoc CRS gel documentation system and Quantity One software (BioRad).

[4] = tested on: HaCaT keratinocytes; assay: GSH-Glo glutathione assay; assay type: cell-based, human; conditions: bixin 0-40 μM, 24 h
Method: Total intracellular glutathione in cultured cells was analyzed using the luminescent GSH-Glo glutathione assay (Promega). Cells were harvested and then counted using a Z2 Coulter counter, and GSH was determined per 10,000 viable cells. Data represent relative levels of glutathione normalized for cell number (treated versus solvent controls).

[5] = biological target: T1, KEAP1 wild type (KEAP1-WT) (Homo sapiens, UniProt Q14145); assay type: cell-based; conditions: SF 5 μM, As 5 μM, bixin 40 μM; 16 h
T1 construct: expressed in transfected cells; host or cells: HaCaT human keratinocytes
T1 sequence (Q14145 whole entry, species assumed): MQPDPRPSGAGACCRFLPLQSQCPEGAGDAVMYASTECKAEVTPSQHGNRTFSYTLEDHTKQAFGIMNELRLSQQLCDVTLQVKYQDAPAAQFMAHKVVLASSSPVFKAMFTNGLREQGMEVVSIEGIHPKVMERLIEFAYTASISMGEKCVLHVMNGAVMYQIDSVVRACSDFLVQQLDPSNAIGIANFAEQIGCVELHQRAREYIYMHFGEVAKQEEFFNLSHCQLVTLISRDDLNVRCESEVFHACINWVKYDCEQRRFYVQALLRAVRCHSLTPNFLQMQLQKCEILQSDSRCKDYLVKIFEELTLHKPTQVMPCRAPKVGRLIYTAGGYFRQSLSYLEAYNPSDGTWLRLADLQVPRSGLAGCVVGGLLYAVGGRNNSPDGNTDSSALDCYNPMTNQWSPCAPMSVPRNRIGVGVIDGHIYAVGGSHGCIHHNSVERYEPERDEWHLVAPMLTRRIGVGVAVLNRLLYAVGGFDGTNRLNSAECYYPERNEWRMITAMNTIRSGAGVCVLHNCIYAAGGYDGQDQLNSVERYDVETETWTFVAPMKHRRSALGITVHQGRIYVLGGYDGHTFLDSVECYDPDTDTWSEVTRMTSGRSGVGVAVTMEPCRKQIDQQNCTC
Text: (§2) Since it has been shown previously that NRF2 activation by canonical inducers (including SF and tBHQ) depends on C (Cys)-151, a critical cysteine residue in KEAP1, the mechanistic involvement of KEAP1-C151 bixin-based NRF2 activation was examined. HaCaT cells were cotransfected with expression vectors for either KEAP1 wild type (KEAP1-WT) or a mutant KEAP1 (KEAP1-C151S; Cys-151 mutated to serine) along with ARE-firefly luciferase and Renilla luciferase reporters to assess NRF2 transcriptional activity (FIG. 3G). After exposure to SF (5 μM), As (sodium arsenite; 5 μM), or bixin (40 μM; all 16 h), NRF2 transcriptional activity was enhanced by all treatments in KEAP1-WT cells, whereas NRF2 activation by SF or bixin was abolished in KEAP1-C151S cells.
as §1

[6] = biological target: T2, KEAP1-C151S (Homo sapiens, UniProt Q14145, C151S); assay type: cell-based; conditions: SF 5 μM, As 5 μM, bixin 40 μM; 16 h
T2 construct: expressed in transfected cells; host or cells: HaCaT human keratinocytes
T2 sequence (Q14145 whole entry C151S): as the sequence (Q14145 whole entry, species assumed) above, with C151S counted along it
Text: as §2, §1

[7] = tested on: NRF2; assay: Immunoblot analysis in human primary melanocytes; assay type: cell-based; conditions: 0-40 μM
Method: Human cultured primary melanocytes (skin pigment producing cells) were treated with Bixin (0-40 μM) for up to 16 h. After 4 and 16 h, cells were harvested for immunoblot analysis testing for Nrf2 upregulation (Nrf2) GAPDH served as loading control.
Human cultured primary melanocytes (skin pigment producing cells) were treated with Bixin (0-40 μM) for 16 h. After 16 h, cells were harvested for immunoblot analysis testing for upregulation of cytoprotective Nrf2 targets including NQO1 and TrxR1. GAPDH served as loading control.

[8] = tested on: HaCaT keratinocytes
Method: Photodynamic induction of intracellular oxidative stress and its suppression by bixin pretreatment was analyzed by flow cytometry using 2′,7′-dichlorodihydrofluorescein diacetate (DCFH-DA) as a sensitive non-fluorescent precursor dye according to a published standard procedure [14]. HaCaT keratinocytes were pretreated with bixin (1 or 24 h) and then exposed to singlet oxygen generated by dye-sensitization as described earlier [14, 44]. In brief, toluidine blue 0 (TB) photosensitization was achieved using a ‘Sylvania 15 W Cool White’ light tube delivering visible light at an irradiance of 4.29 mW/cm^2. The irradiance in the visible region (400-700 nm) was determined using a spectroradiometer, Model 754 from Optronic Laboratories (Orlando, Fla.). Cells received visible radiation at a distance of 50 mm from the source through the polystyrene lids of cell culture dishes. For ^1O2 exposure, cells were washed with PBS and immediately exposed to the combined action of visible light (0.3 J/cm^2) and TB (3.3 μM) in PBS. Following 5 min incubation in the dark after irradiation, cells were washed with PBS. Cells were then incubated for 60 min in the dark (37° C., 5% CO2) with culture medium containing DCFH-DA (5 μg/mL final concentration). Cells were then washed with PBS, harvested by trypsinization, resuspended in 300 μl PBS, and analyzed by flow cytometry.

COC(=O)/C=C/C(C)=C\C=C\C(C)=C\C=C\C=C(C)\C=C\C=C(C)\C=C\C(=O)O [bixin]
expression of NRF2 target genes (AKR1C2, GCLC, NQO1, SLC7A11, FTH1, TXNRD1, NCF2, SRXN) [1]: Pronounced upregulation
NRF2 transcriptional activity [2]: dose-dependent induction
NRF2 target proteins GCLM and AKR1C1 [3]: upregulated
bixin-induced Nrf2 upregulation after 24 h preincubation using NAC [3]: did not attenuate
duration of NRF2 upregulation ([3]; bixin 20 μM): sustained over the course of the 24 h treatment
time to detectable induction of NRF2 protein levels ([3]; bixin 20 μM): ≤ 2 h
KEAP1 protein levels ([3]; bixin 20 μM, 0-48 h): no changes
duration of GCLM upregulation ([3]; bixin 20 μM, 48 h): persisted over an extended period
bixin-induced upregulation of Nrf2 protein levels under cotreatment with anti-oxidants (tiron, trolox, NAC) ([3]; bixin 40 μM, 4 h, 1 h antioxidant pretreatment): not attenuated
increase of total cellular glutathione [4]: ~50%
NRF2 transcriptional activity in KEAP1-WT cells [5]: enhanced
NRF2 activation in KEAP1-C151S cells [6]: abolished
Nrf2 upregulation in melanocytes ([7]; 4 and 16 h): efficient Nrf2 activator
upregulation of cytoprotective Nrf2 targets NQO1 and TrxR1 in melanocytes ([7]; 16 h): efficient activator
DCF fluorescence after compound only (no dye sensitization) [8]: did not cause an increase
protection against 1O2-induced oxidative stress ([8]; HaCaT, 20 μM, 1 h preincubation): without protective effects
suppression of 1O2-induced increase in DCF fluorescence ([8]; HaCaT, 20 μM, 24 h preincubation): efficiently suppressed
